These results are taken from article PMC6844378, “Structure activity relationship studies on Amb639752: toward the identification of a common pharmacophoric structure for DGKα inhibitors” (Journal of Enzyme Inhibition and Medicinal Chemistry, 2019).

In data set [1] the target is T1, DGKα (Homo sapiens, UniProt P23743). Put plainly: DGK assay on OST-DGKα enriched MDCK homogenates. The data set is classed as biochemical. Also on record: expressed in transfected cells; host or cells: MDCK cells (vector-infected, doxycycline-induced), crude homogenate. To be noted: for remaining activity at 100 µM: percentage of residual DGKα activity compared to DMSO control, OST-DGKα overexpressing cell lysates, saturating DAG and ATP, read-out: Residue activity at 100 µM; for IC50: residual OST-DGKα activity at 0.1, 1.0, 10.0 and 100.0 µM. Here is the method:
Madin-Darby canine kidney (MDCK) cells stably expressing One Strep Tag DGKα (OST-DGKα) were prepared by infecting MDCK cells with a vector expressing an inducible OST tagged DGKα constructs. MDCK cells infected with empty vector were used as controls. MDCK cells were cultured in MEM (minimal essential medium) with 5% FBS (foetal bovine serum) and 1% antibiotic–antimycotic solution. Routinely, cells were splitted every 3–4 days with trypsin–EDTA 0.25% in standard 100 mm dishes.
Large cultures of MDCK cells for enzyme preparation were done by plating 5 × 10^6 cells in 245 mm^2 dishes. Once they reached nearly 70% confluence, cells were treated with doxycycline (1 µg/mL, two days). […] Cells were collected with a rubber scraper, homogenised by passing them through a 29 G-needle syringe 20 times and stored in aliquots at –80 °C. Presence of OST-DGKα was confirmed by western blotting and enzyme assay, transduced DGKα has an activity >100 folds the endogenous DGK.
Essentionally, the same procedure was followed as reported previously in Velnati et al.[9] In brief, DGK activity was assayed by measuring initial velocities (5 min at 27 °C) in presence of saturating substrate concentrations. Reaction conditions: 0.9 µg/µL 1,2-dioleoyl-sn-glycerol, 5 mM ATP, 0.01 µCi/µL [γ^32P]-ATP, 1 mM sodium orthovanadate, 10 mM MgCl2, 1.2 mM EGTA in 7.5 mM Hepes pH 8[12]. Reaction mixture is assembled mixing enzyme (24.5 µL of homogenate), 100× inhibitor or DMSO (0.5 µL), 5× ATP solution (10 µL of 25 mM ATP, 0.05 µCi/µL [γ^32P]-ATP (Perkin-Elmer, Milan, Italy), 5 mM sodium orthovanadate, 50 mM MgCl2), and 3.3× DAG solution (15 µL of 3 µg/µL 1,2-dioleoyl-sn-glycerol resuspended by sonication in 4 mM EGTA in 25 mM Hepes pH 8). The reaction was stopped after 5 min by adding 200 µL of freshly prepared 1 M HCl and lipid was extracted by adding 200 µL of CH3OH:CHCl3 1:1 solution and vortexing for 1 min. The two phases were separated by centrifugation (12,000 RCF for 2 min). Twenty-five microlitres of the lower organic phase was spotted in small drops on silica TLC plates. TLC was run 10 cm and dried before radioactive signals were detected by GS-250 molecular imager and was quantified by quantity one (Bio-Rad, Hercules, CA) software assuring the absence of saturated spots.
Percentage residual activity was calculated as follows: (OST-DGKα homogenate with inhibitor – vector homogenate)/(OST-DGKα homogenate with DMSO – vector homogenate)×100.
Data for the screen on OST-DGKα homogenates are the mean of duplicates. The compounds showing inhibitory activity in this assay were tested >4 times and the mean ± SEM is reported.
To calculate IC50 values of active inhibitors, the inhibitor activity was measured at least three times at 0.1, 1.0, 10.0, and 100.0 µM concentration. Data were analysed using [inhibitor] vs. normalised response parameters with least square [ordinary] curve fitting method in GraphPad PRISM 8.0 software (GraphPad Software, La Jolla, CA) mentioning 95% confidence interval and IC50 values always greater than 0.0. […] In all the experiments, the data were normalised with the controls.
Each inhibitor was tested in duplicate at least once, and DGKα activity was expressed as percentage of residual DGKα activity compared to DMSO control in the same assay. Assay uses OST-DGKα overexpressing cell lysates in presence of saturating exogenous DAG and ATP. We considered R59022 (commercially available) and the lead compound Amb63975230 as our reference molecules.
To measure the inhibitor potency, we determined the IC50 values for the compounds that resulted active when tested at 100 µM by measuring the residual OST-DGKα activity over a dose range of inhibitor concentrations (0.1 µM, 1.0 µM, 10.0 µM, and 100.0 µM).

Data set [2] relates to SAP-deficient T cells. The data set can be described thus: RICD assay in SAP silenced T cells. The data set is classed as cell-based, human. The conditions noted are these: 10 µM, 30 min pre-treatment, OKT3 10 ng/mL, 24 h. Here is the method: PBL were isolated from healthy anonymous human donors by Ficoll-Paque PLUS (GE Healthcare, Chicago, IL) density gradient centrifugation, washed, and resuspended at 2 × 10^6 cell/mL in RPMI-GlutaMAX containing 10% heat inactivated FCS, 2 mM glutamine, and 100 U/mL of penicillin and streptomycin. T cells were activated with 1 µg/mL anti-CD3 (UCHT1) and anti-CD28 (clone CD28.2) antibodies. After three days, activated T cells were washed and cultured in medium additionated of 100 IU/mL rhIL-2 (Peprotech, Rocky Hill, NJ) at 1.2 × 10^6 cells/mL for ≥7 days by changing media for every 2–3 days.
Activated human PBLs were transfected with 200 pmol of siRNA oligonucleotides specific for the target protein (Stealth Select siRNA; Life Technologies, Carlsbad, CA) or a non-specific control oligo (Life Technologies, Carlsbad, CA). Transient transfections were performed using Amaxa nucleofector kits for human T cells (Lonza, Basel, Switzerland) and the Amaxa Nucleofector II or 4D systems (programmes T-20 or EI-115). Cells were cultured in IL-2 (100 IU/mL) for four days to allow target gene knockdown. Knockdown efficiency was periodically evaluated by Western blotting.
To test restimulation induced cell death, activated T cells (10^5 cells/well) were plated in triplicate in 96-well round-bottom plate and treated with anti-CD3 (clone OKT3) (10 ng/mL) in RPMI-GlutaMAX supplemented with 100 IU/mL rhIL-2 for 24 h. In these assays, inhibitors (10 µM) were added 30 min before the restimulation with OKT3. 24 h after treatment, cells were stained with 20 ng/mL propidium iodide and collected for a constant time of 30 s per sample on Attune Nxt Flow Cytometer (Thermo Fisher Scientific, Waltham, MA). Cell death is expressed as % cell loss and calculated as: % cell loss=(1−(number of viable cells in sample/number of viable cells in control)×100)
Results were expressed as mean ± standard error of the mean (SEM). We always compared controls and SAP silenced lymphocytes from the same donors as there is a large individual variability in RICD sensitivity.
To evaluate inhibitor efficacy in physiological context, we modelled XLP-1 by silencing SAP in primary peripheral blood T lymphocytes (PBLs) and restimulating them with anti-CD3 antibody (OKT3 10 ng/mL, 24 h). We pre-treated the cells with the indicated inhibitors for 30 min at a concentration of 10 µM[8].
Figure 9. DGKα inhibitors partially restores apoptosis in SAP deficient lymphocytes. […] After 4 days, the cells were restimulated with CD3 agonist OKT3 (10 ng/mL) in presence of respective inhibitor. Vehicle (DMSO) was used as control. Twenty-four hours later, the % of cell loss was evaluated by PI staining. Data are the mean ± SEM of nine independent experiments performed in triplicate.

The test system of data set [3] is XLP-1 model. To be noted: cited from earlier work.
On the set-up of data set [4]: method as in PMID 26420856. To be noted: mice, rapid clearance; cited from earlier work.
In data set [5] the test system is DGK isoforms. Also on record: method as in PMID 10718334, PMID 23949095. The conditions noted are these: cited from earlier work.
Data set [6] concerns 5HT2A. On the set-up: method as in PMID 27974147. To be noted: antagonistic activity on 5-HT2 receptors; cited from earlier work.
In data set [7] the test system is T cells from XLP-1 patients. Also on record: method as in PMID 26764158. The conditions noted are these: pre-treatment with inhibitor; cited from earlier work.
Data set [8] concerns the target T1, DGKα. On the set-up: expressed in transfected cells; host or cells: MDCK cells (vector-infected, doxycycline-induced), crude homogenate; method as in PMID 30611057. The conditions noted are these: in our assay system; cited from earlier work.
For data set [9], the system named is serotonin receptors. Put plainly: Superoxide anion production: serotonin effect on PMA-induced oxidative burst in monocytes. Format: cell-based. The conditions noted are these: drugs 10 µM, 1 h; serotonin 1 µM; PMA 1 µM 30 min; human monocytes. As to the method: Human monocytes were isolated from healthy anonymous human buffy coats (provided by the Transfusion Service of Ospedale Maggiore della Carità, Novara, Italy) by the standard technique of dextran sedimentation and Histopaque (density = 1.077 g cm^3, Sigma-Aldrich, Milano, Italy) gradient centrifugation (400×g, 30 min, room temperature) and recovered by fine suction at the interface, as described previously. Purified monocytes populations were obtained by adhesion (90 min, 37 °C, 5% CO2) in serum-free RPMI 1640 medium (Sigma-Aldrich, Milano, Italy) supplemented with 2 mM glutamine and antibiotics. Cell viability (trypan blue dye exclusion) was usually >98%.
All the experiments were performed in triplicate using cells isolated from each single donor.
Monocytes (250,000 cells/well) were treated for 1 h with the indicated drugs (10 µM) with or without serotonin (1 µM). Then, cells were stimulated with phorbol 12-myristate 13-acetate (PMA; Sigma-Aldrich, Milano, Italy) 1 µM for 30 min. PMA is a well-known stimulus that induces a strong and significant respiratory burst via PKC activation. Superoxide anion production was then evaluated by the superoxide dismutase (SOD)-sensitive cytochrome C (CytC) reduction assay and expressed as nmoles CytC reduced/10^6 cells/30 min, using an extinction coefficient of 21.1 mM. To avoid interference with spectrophotometrical recordings, cells were incubated with RPMI 1640 without phenol red, antibiotics, and FBS.
To this purpose, we measured the effect of serotonin on PMA-induced oxidative burst in human monocytes. As previously shown, 1 µM serotonin reverses the oxidative burst to control values.
Figure 8. […] Results are expressed as n moles of reduced cytochrome C/10^6 cells. Data are means ± SEM of 10 independent experiments performed in triplicate.

In data set [10] the target is dopaminergic receptors. Also on record: method as in PMID 2860558. The conditions noted are these: cited from earlier work.
On the set-up of data set [11]: method as in PMID 27974147. To be noted: in human; cited from earlier work.
The target of data set [12] is serotonin receptors. To be noted: read-out: IC50 as serotonin antagonist; cited from earlier work.

As usually defined, the IC50 is the concentration needed to halve the response being measured. In general, inhibition refers to the relative decrease from the control value, in per cent. Read a high inhibition as a response far below the control.

Like-named read-outs stand apart in the source and are kept apart here.

T1 sequence (P23743 whole entry): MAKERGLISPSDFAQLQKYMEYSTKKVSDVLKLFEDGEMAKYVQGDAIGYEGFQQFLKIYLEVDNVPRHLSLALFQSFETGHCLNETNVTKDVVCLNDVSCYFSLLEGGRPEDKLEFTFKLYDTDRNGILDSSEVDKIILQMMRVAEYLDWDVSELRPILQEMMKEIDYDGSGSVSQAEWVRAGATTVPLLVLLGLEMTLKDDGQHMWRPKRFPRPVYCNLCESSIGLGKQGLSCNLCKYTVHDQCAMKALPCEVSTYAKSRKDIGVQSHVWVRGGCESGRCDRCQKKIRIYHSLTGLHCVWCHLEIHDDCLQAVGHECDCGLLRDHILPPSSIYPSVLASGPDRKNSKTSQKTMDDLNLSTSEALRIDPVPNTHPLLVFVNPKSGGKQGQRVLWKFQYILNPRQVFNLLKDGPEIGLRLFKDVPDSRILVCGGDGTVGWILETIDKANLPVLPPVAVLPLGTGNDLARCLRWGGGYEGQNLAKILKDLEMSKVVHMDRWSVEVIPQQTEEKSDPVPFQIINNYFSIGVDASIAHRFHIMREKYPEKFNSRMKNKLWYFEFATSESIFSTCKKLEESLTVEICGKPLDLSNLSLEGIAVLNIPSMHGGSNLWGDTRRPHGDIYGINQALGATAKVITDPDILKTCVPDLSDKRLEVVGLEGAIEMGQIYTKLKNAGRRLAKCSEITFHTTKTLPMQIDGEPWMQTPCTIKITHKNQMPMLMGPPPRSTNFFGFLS

`Cc1ccc2c(C(=O)CN3CCN(C(=O)c4cccs4)CC3)c(C)[nH]c2c1` [Compound 14, 1-(2,6-Dimethyl-1H-indol-3-yl)-2-(4-(thiophene-2-carbonyl)piperazin-1-yl)ethan-1-one]: the remaining activity at 100 µM in [1] (100 µM) was 6%. In addition, the midpoint of inhibition in [1], the IC50, lay at 3000 nM. Further, the “effect on RICD in control siRNA-transfected cells” value in data set [2] is “slightly reducing”.

`Cc1nc2sccn2c(=O)c1CCN1CCC(=C(c2ccccc2)c2ccc(F)cc2)CC1` [Compound R59022]: in data set [3], the “effect in an in vivo model of XLP-1” value is “beneficial effects”. In [1] (100 µM), the inhibition at 100 µM was determined as 73% and the remaining activity at 100 µM turned out to be 27%. In addition, in [1], the IC50 turned out to be 15200 ± 5800 nM. Moreover, in data set [4], the t1/2 was around 2 h. The DGK isoforms targeted result in data set [5] is “type III and V (ε e θ)”. Besides, in data set [6], the IC50 is 2.2 nM. In data set [7], the “rescue of defective RICD in T cells from XLP-1 patients” value is on record as “rescued”.

Regarding `O=c1c2ccccc2[nH]c(=S)n1CCN1CCC(=C(c2ccc(F)cc2)c2ccc(F)cc2)CC1` [Compound R59949, 3-[2-(4-[bis-(4-fluorophenyl)methylene]-1-piperidinyl)ethyl]-2,3-dihydro-2-thioxo-4(1h)quinazolinone], in data set [1] (100 µM), the remaining activity at 100 µM turned out to be 28%. The t1/2 in [4] is on record as around 2 h. Besides, the DGK isoforms targeted result in [5] was “type I and II (γ, δ e κ)”. Besides, the IC50 in data set [8] was 11000 nM; in data set [6] it was 9.2 nM. Besides, the “rescue of defective RICD in T cells from XLP-1 patients” value in data set [7] is listed as “rescued”.

For `O=C(c1ccc(F)cc1)C1CCN(CCn2c(=O)[nH]c3ccccc3c2=O)CC1` [ketanserin, reference compound], the “effect on serotonin action on PMA-induced oxidative burst” value in data set [9] is recorded as “impaired serotonin action”. In data set [2] (SAP siRNA), the “rescue of RICD (apoptosis) in SAP-deficient T cells” value was “inactive”.

As to `Cc1nc2sccn2c(=O)c1CCN1CCC(=C(c2ccc(F)cc2)c2ccc(F)cc2)CC1` [ritanserin], in data set [9], the “effect on serotonin action on PMA-induced oxidative burst” value was “impaired serotonin action”. Also, the concentration for half-maximal inhibition (IC50) in data set [10] is 69 nM; in [8], 17000 nM; in data set [12] it was 0.9 nM. For the same compound, the t1/2 in [11] is on record as 40 h.
